In one assay the test system is AP-I luciferase reporter. The assay is described as follows: AP-1 luciferase reporter assay in K562-AP1 cells transfected with pcDNA3-peptide. In kind it is cell-based. Particulars: 48 hours after transfection, compared to control cells, p<0.05, FIG. 15. On the procedure: The K562 cell line was stably-transfected with the AP-I luciferase reporter of the Mercury Profiling kit (Clontech, U.S.A.), and clonal cell line 26 established. In 6-well tissue culture plate format, K562-AP1 cells were transfected with either pcDNA3 control, pcDNA3-Jun or pcDNA3-peptide using Lipofectamine-2000 (Life Technologies), according to manufacturer's instructions. Transfections were incubated for 48 hours, cells collected and protein lysates extracted for luciferase assay according to Mercury Profiling kit and associated protocols. Luciferase assays were performed in independent triplicates, and results for each peptide subjected to statistical analysis (SPSS software package) to determine if they were different to Jun (positive control for AP-1 activation) or pcDNA-3 (negative control for AP-I activation).
Background: A reporter such as luciferase makes a cellular process visible.

In assay [1] the test system is Primary rat neuronal cells. The assay is described as follows: Glutamate induced cell death of primary neurons, D and L amino acid synthetic peptides. In kind it is cell-based. Particulars: FIG. 21; for protection of neurons from glutamate induced cell death: 250 μM glutamate for 5 minutes; for protection offered by the D form relative to the L form of the peptide: same concentrations, glutamate induced cell death. The text has this: D amino acid forms of peptides SP35 (designated D35) (SEQ ID NO: 132) and SP36 (designated D36) (SEQ ID NO: 136) comprising D amino acids other than glycine were produced synthetically, as were peptides SP35, SP36 and TIJIP comprising L-amino acids. The retro-inverted peptides further comprised a TAT protein targeting domain fused to the C-terminus of the inverted peptide moiety and separated therefrom by a single L-glycine residue in each case. The amino acid sequences of the retro-inverted peptide analogues of SEQ ID NOs: 132 and 136 are set forth in SEQ ID NOs: 181 and 182, respectively.
Primary rat neuronal cells were isolated and cultured using methods known in the art. Cells were then incubated in the presence or absence of a test peptide, a positive control peptide (Ti JIP) or a combination of known small-molecule glutamate inhibitors (MK801 and CNQX). Cells were incubated in the presence of 250 μM glutamate for 5 minutes to induce cell death representative of ischemia induced cell death.

The test system of assay [2] is Primary rat neuronal cells. Put plainly: Acute ischemia: anaerobic incubation of primary neurons (MTS assay). It counts as cell-based. Particulars: anaerobic incubator for 35 minutes, peptide 15 mins pre-insult, MTS 24 hours later; FIG. 22. On the procedure:
Cells at the core of an ischemic event (e.g., a stroke) are subject to anaerobic conditions leading to severe energy depletion and glutamate release, which causes necrotic cell death. Such a condition is mimicked by incubating cell cultures in anaerobic conditions.
To determine the effect of peptides 35 (SEQ ID NO: 130) and 36 (SEQ ID NO: 134) comprising either D- or L-amino acids on an acute ischemic effect, primary rat neuronal cells were isolated and cultured. Synthetic peptides were added to cultures and the cells maintained in an anaerobic chamber for approximately 35 minutes. Cell survival was then measured.
Briefly, isolated rat neurons were treated with peptide for 15 mins pre-insult. After addition of peptide or control, Cells were washed in glucose free balanced salt solution containing deoxy glucose to prevent glycolysis. Cells were then incubated in anaerobic incubator for 35 minutes. Post insult, solution was removed, fresh media added to cells and MTS assayed for live cells 24 hours later.

The subject of a further assay is Primary rat neurons. The assay is described as follows: Glutamate induced cell death of primary neurons, in vitro ischemia model (MTS assay). It counts as cell-based. Particulars: for rescue of primary neurons from glutamate induced cell death / number of cells surviving glutamate compared with TI-JIP: 250 μM glutamate; for rescue of primary neurons from glutamate induced cell death: live cells assayed 24 hours later, FIG. 19, 20; for number of cells surviving glutamate compared with TI-JIP: versus known c-Jun dimerization inhibitory peptide TI-JIP, FIG. 19. On the procedure:
Primary neuronal cells were isolated and cultured in the presence of glutamate (250 μM) for […] to induce cell death as a model of ischemia induced cell death.
Primary rat neurons were isolated from embryos (standard protocols), plated in cell culture dishes and maintained for 11 days in culture before experiment. Peptide was added 15 minutes to media before glutamate addition. Glutamate was added to final concentrations of 250 micromolar, for 5 mins at 37 degrees. Glutamate media removed, fresh media added. Assays for live cells done 24 hours later. Live cells were assayed using MTS assay.
For orientation: Tetrazolium assays rely on reduction of a dye to a coloured formazan, in cell work by metabolically active cells.

In a further assay the test system is SIRC cells. Put plainly: UV B induced cell death, FACS for propidium iodide and Annexin V. In kind it is cell-based. The following applies: 10 minutes UV B, media containing 10 micromolar peptide, FIG. 18c. The method, then:
Cells were exposed to UV B radiation and the level of cell death determined. Briefly, corneal keratinocytes in culture were exposed to IOmins UV irradiation. Post-exposure, media was replaced with either normal media or media containing 10 micromolar peptide. Subsequently, cells were prepared for FACS analysis. FACS analysis was used to detect propidium iodide and the level of Annexin V in a cell to determine the number of cells undergoing necrosis, early apoptosis or late apoptosis.

The next assay addresses T1, c-Jun (Homo sapiens, UniProt P05412).
T1 construct: expressed in transfected cells; host or cells: HEK293
The assay is described as follows: Co-immunoprecipitation of c-Jun with FLAG-tagged peptides from HEK293 cells. It counts as binding. The following applies: anti-FLAG capture, anti-c-Jun detection, FIG. 16. The method, then:
HEK293 cells were cultured in DMEM+10% FCS, 2 mM L-glutamine. On the day prior to transfection, cells were trypsinised and split into 6-well tissue culture plates so that they reached 80-90% confluency for transfection. Cells were co-transfected with pcDNA3-Jun (1.3 μg) and pcDNA3-peptide (2.6 μg) using Lipofectamine-2000 reagent (Life Technologies, U.S.A.) as per manufacturer's instructions. Forty-eight hours post-transfection, transfected cells were scraped from the plates, collected by centrifugation and proteins extracted in hypotonic lysis buffer (1OmM Tris, 1OmM NaCl, 2 mM EDTA, pH 7.5+protease inhibitors (Roche, U.S.A.)). Salt concentration was adjusted to 15OmM by addition of NaCl, debris pelleted and proteins in supernatant collected in fresh tubes.
A small aliquot (40 μl) of protein was set aside for western analysis. The remainder was incubated by rotation at 4° C. for two hours, with either anti-Flag conjugated agarose beads (Sigma-Aldrich, U.S.A.) anti-Flag antibody (Sigma-Aldrich), preconjugated to anti-mouse magnetic Dynabeads (Dynal Biotech, Norway) according to manufacturer's directions. Protein complexes bound to conjugated beads were collected by centrifugation or over a Dynal magnet, washed eight times for five minutes with NET-2 buffer (50 mM Tris-Cl pH7.5, 150 mM NaCl, 0.05% Nonidet P-40). […]

Entries after “also recorded” stand apart in the source; their conditions may differ. Where no end group is shown, it is not given here. [ ]: non-standard residue; d: D form.

T1 sequence (P05412 whole entry): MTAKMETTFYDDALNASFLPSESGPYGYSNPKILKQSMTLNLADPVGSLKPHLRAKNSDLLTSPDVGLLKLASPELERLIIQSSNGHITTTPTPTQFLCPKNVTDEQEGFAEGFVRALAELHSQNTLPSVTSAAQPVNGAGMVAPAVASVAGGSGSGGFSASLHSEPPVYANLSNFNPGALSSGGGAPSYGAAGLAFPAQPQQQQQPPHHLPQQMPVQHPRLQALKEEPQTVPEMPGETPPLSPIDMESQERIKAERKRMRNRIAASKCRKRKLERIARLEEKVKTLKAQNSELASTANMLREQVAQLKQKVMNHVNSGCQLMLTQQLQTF

In the case of “SP34: c-Jun dimerization inhibitory peptide; amino acid SEQ ID NO: 126 with flanking vector sequence, 128 without (AYQSINSSPVLPENSQELSLHLKQHVTKS)”, the “expression of a reporter gene under control of an AP-I regulatory region” value (from here on “expression of a reporter gene”) in the assay on AP-I luciferase reporter is recorded as “significantly reducing expression of a reporter gene”.
Consider “D35: retro-inverted analogue of SEQ ID NO: 132 with C-terminal TAT domain after a single L-glycine; SEQ ID NO: 181 ([dR][dE][dR][dR][dS][dS][dS][dQ][dI]GG[dS][dR][dI][dS][dQ][dY][dA]GRRRQRRKKRG; also: C-terminal TAT domain: chirality not given here) [Peptide D35]”, for which, in assay [1], the “protection of neurons from glutamate induced cell death” value (“protection of neurons” below) is “protects a considerable proportion of neurons from glutamate induced cell death” and the “protection offered by the D form relative to the L form of the peptide” value was “superior”. In addition, the “rescue of cells from cell death caused by acute ischemia” value in assay [2] is reported as “a considerable proportion of cells from cell death”.
Regarding “SP36: c-Jun dimerization inhibitory peptide; amino acid SEQ ID NO: 134 with flanking vector sequence, 136 without (GLQGRRRQGYQSIKP)”, in the assay with Primary rat neurons, the “rescue of primary neurons from glutamate induced cell death” value is given as “capable of rescuing a significant proportion of cells from cell death; also recorded: capable of rescuing almost all cells from cell death; also recorded: dose dependent manner” and the “number of cells surviving glutamate compared with TI-JIP” value is “considerably greater”. Besides, the “cells rescued from glutamate induced cell death” value in the assay with Primary rat neurons (about 5 μM of peptide, FIG. 20) is reported as “about 100%”. The “protection of neurons” value in assay [1] is “protects a considerable proportion of neurons from glutamate induced cell death”. The “number of cells undergoing apoptosis after UV B exposure” value in the assay with SIRC cells is on record as “capable of reducing the number of cells undergoing apoptosis”. The “expression of a reporter gene” value in the assay with AP-I luciferase reporter is recorded as “significantly reducing expression of a reporter gene”.
Turning to “SP71: c-Jun dimerization inhibitory peptide; amino acid SEQ ID NO: 158 with flanking vector sequence, 160 without (PFFWRLNKIFYFIDSRVAAAILN)”, in the assay on Primary rat neurons, the “rescue of primary neurons from glutamate induced cell death” value was “capable of rescuing a significant proportion of cells from cell death” and the “number of cells surviving glutamate compared with TI-JIP” value is given as “considerably greater”. In addition, in the assay with AP-I luciferase reporter, the “expression of a reporter gene” value is listed as “significantly reducing expression of a reporter gene”.
Regarding “D36: retro-inverted analogue of SEQ ID NO: 136 with C-terminal TAT domain after a single L-glycine; SEQ ID NO: 182 ([dP][dK][dI][dS][dQ][dY]G[dQ][dR][dR][dR]G[dQ][dL]GGRRRQRRKKRG; also: C-terminal TAT domain: chirality not given here) [Peptide D36]”, in assay [1], the “protection of neurons” value is listed as “protects a considerable proportion of neurons from glutamate induced cell death” and the “protection offered by the D form relative to the L form of the peptide” value was “equivalent”. Besides, the “rescue of cells from cell death caused by acute ischemia” value in assay [2] is “a considerable proportion of cells from cell death”.
“SP20: c-Jun dimerization inhibitory peptide; amino acid SEQ ID NO: 94 with flanking vector sequence, 96 without (IYSSILWGTKWCVLLVITP)”: the “binding of c-Jun in co-immunoprecipitation” value with c-Jun is on record as “capable of binding c-Jun to a level detectable in a co-immunoprecipitation”.

The values are drawn from patent publication US20100029552A1, “Peptide inhibitors of c-jun dimerization and uses thereof” (Phylogica Limited, priority 2004, published 2010).
